The text below walks through data of ChEMBL document CHEMBL1268962 (Bioorg Med Chem Lett, 2010).

Format in all cases: functional, cell-based
One test concerns L1210. As to the kind of experiment: Cytotoxicity against mouse L1210 cells after 72 hrs. Particulars: L1210, 72 h.
Test [1] concerns HCT-116. As to the kind of experiment: Cytotoxicity against human HCT116 cells after 72 hrs. The note with it: HCT-116, 72 h.
Test [2] has as its system HCT-116. As to the kind of experiment: Cytotoxicity against vinblastine-resistant human HCT116 cells after 72 hrs. Particulars: HCT-116, 72 h.

On to `CC[C@]1(O)C[C@@H]2CN(CCc3c([nH]c4ccccc34)[C@@](CCO)(c3cc4c(cc3OC)N(C)C3[C@]45CCN4CC=C[C@@](CC)([C@@H](OC(C)=O)[C@]3(O)C(=O)OC)[C@H]45)C2)C1` (some centres undefined), for which the IC50 in the test on L1210 was 6.5 µM; in the test on HCT-116 [1], 5.8 µM; in the test with HCT-116 [2], greater than 10 µM.

As for `CC[C@]1(O)C[C@@H]2CN(CCc3c([nH]c4ccccc34)[C@@](C#N)(c3cc4c(cc3OC)N(C)C3[C@]45CCN4CC=C[C@@](CC)([C@@H](OC(C)=O)[C@]3(O)C(=O)OC)[C@H]45)C2)C1` (some centres undefined), the IC50 in the test on L1210 was determined as 0.63 µM; in the test on HCT-116 [1], 0.67 µM; with HCT-116 [2], 7.4 µM.

`CCOC(=O)[C@]1(c2cc3c(cc2OC)N(C)C2[C@]34CCN3CC=C[C@@](CC)([C@@H](OC(C)=O)[C@]2(O)C(=O)OC)[C@H]34)C[C@@H]2C=C(CC)CN(CCc3c1[nH]c1ccccc31)C2` (some centres undefined): the IC50 in the test with L1210 is 0.62 µM; in the test with HCT-116 [1], 0.64 µM; in the test on HCT-116 [2], 4.1 µM.

On to `CCOC(=O)[C@]1(c2cc3c(cc2OC)N(C)C2[C@]34CCN3CC=C[C@@](CC)([C@@H](OC(C)=O)[C@]2(O)C(=O)OC)[C@H]34)C[C@H]2CN(CCc3c1[nH]c1ccccc31)C[C@](O)(CC)C2` (some centres undefined), for which the IC50 in the test on L1210 worked out at 0.06 µM; with HCT-116 [1] it was 0.07 µM; with HCT-116 [2] it was 0.83 µM.

In the case of `CCC1=C[C@@H]2CN(CCc3c([nH]c4ccccc34)[C@@](C(N)=O)(c3cc4c(cc3OC)N(C)C3[C@]45CCN4CC=C[C@@](CC)([C@@H](OC(C)=O)[C@]3(O)C(=O)OC)[C@H]45)C2)C1` (some centres undefined), the IC50 with L1210, with HCT-116 [1] and with HCT-116 [2] was greater than 10 µM in each case.

Turning to `CC[C@]1(O)C[C@@H]2CN(CCc3c([nH]c4ccccc34)[C@@](C(=O)OC)(c3cc4c(cc3OC)N(C)[C@H]3[C@@](O)(C(=O)OC)[C@H](OC(C)=O)[C@]5(CC)C=CCN6CC[C@]43[C@@H]65)C2)C1` [VINBLASTINE], the values for the IC50 in the test with L1210 and in the test on HCT-116 [2] were 0.006 µM and 0.6 µM, respectively.

`CCC1=C[C@@H]2CN(CCc3c([nH]c4ccccc34)[C@@](C(=O)OC)(c3cc4c(cc3OC)N(C)C3[C@]45CCN4CC=C[C@@](CC)([C@@H](OC(C)=O)[C@]3(O)C(=O)OC)[C@H]45)C2)C1` (some centres undefined): the IC50 in the test on L1210 worked out at 0.065 µM; in the test with HCT-116 [1] it was 0.075 µM; in the test with HCT-116 [2], 0.6 µM.

Regarding `CCC1=C[C@@H]2CN(CCc3c([nH]c4ccccc34)[C@@](C#N)(c3cc4c(cc3OC)N(C)C3[C@]45CCN4CC=C[C@@](CC)([C@@H](OC(C)=O)[C@]3(O)C(=O)OC)[C@H]45)C2)C1` (some centres undefined), the values for the IC50 with L1210, in the test with HCT-116 [1] and with HCT-116 [2] were 6.5 µM, 6.1 µM and 6.8 µM, respectively.

Turning to `CC[C@]1(O)C[C@@H]2CN(CCc3c([nH]c4ccccc34)[C@@](C(N)=O)(c3cc4c(cc3OC)N(C)C3[C@]45CCN4CC=C[C@@](CC)([C@@H](OC(C)=O)[C@]3(O)C(=O)OC)[C@H]45)C2)C1` (some centres undefined), the IC50 in the test on L1210, in the test on HCT-116 [1] and in the test on HCT-116 [2] was greater than 10 µM each time.

Turning to `CCC1=C[C@@H]2CN(CCc3c([nH]c4ccccc34)[C@@](C=O)(c3cc4c(cc3OC)N(C)C3[C@]45CCN4CC=C[C@@](CC)([C@@H](OC(C)=O)[C@]3(O)C(=O)OC)[C@H]45)C2)C1` (some centres undefined), the IC50 with L1210 is 6.3 µM; in the test on HCT-116 [1] it was 7 µM; in the test with HCT-116 [2], greater than 10 µM.
